This is an account of results in ChEMBL document CHEMBL4622972 (J Med Chem, 2020).

Data set [1] is described as follows: 1-octanol-aqueous buffer distribution coefficient, log D of the compound at pH 7.4. In kind it is physicochemical.
A short description of data set [2]: Apparent permeability across apical to basolateral side in human Caco2 cells at pH 7.4. In kind it is ADME, cell-based. The following applies: Caco-2, pH 7.4. (In general: Caco-2 cells form a polarised layer with tight junctions and transporters.)
Data set [3] can be described thus: Apparent permeability across basolateral to apical side in human Caco2 cells at pH 7.4. In kind it is ADME, cell-based. Particulars: Caco-2, pH 7.4; call rule not given here.
Data set [4] can be described thus: Volume of distribution at steady state in iv dosed Harlan-Han Wistar rat. The following applies: in vivo, read-out: Vdss. In kind it is ADME, organism-based.
A short description of data set [5]: Oral bioavailability in Harlan-Han Wistar rat. In kind it is ADME, organism-based. The following applies: in vivo.
The nature of data set [6]: Volume of distribution at steady state in iv dosed dog. Particulars: in vivo, read-out: Vdss. In kind it is ADME, organism-based, Canis lupus familiaris.
The nature of data set [7]: Oral bioavailability in dog. In kind it is ADME, organism-based, Canis lupus familiaris. The following applies: in vivo.
Data set [8] in a line: Drug absorption in po dosed hamster. In kind it is ADME, organism-based. Particulars: cricetinae, in vivo.
Data set [9] can be described thus: Drug absorption in po dosed mouse. In kind it is ADME, organism-based. Particulars: in vivo.
Data set [10] is described as follows: Drug absorption in po dosed rat. In kind it is ADME, organism-based. Particulars: in vivo.
A short description of data set [11]: Apparent permeability in human jejunum. In kind it is ADME, tissue-based.
A short description of data set [12]: Apparent permeability in rat jejunum. In kind it is ADME, tissue-based.

The compound `Cc1ccc2[nH]c(C(=O)N[C@H]3CN(S(=O)(=O)C4CCOCC4)C[C@@H]3C(=O)NCCN(C)C)cc2c1` came in with a pH-dependent lipophilicity (logD) in data set [1] of 1. As to `Cc1ccc2[nH]c(C(=O)N[C@H]3CN(S(=O)(=O)c4ccccc4)C[C@@H]3C(=O)N[C@H]3CCCN(C)C3)cc2c1`, in [1], the logD is 2.7. The Papp A→B in data set [2] is 0.3 ×10⁻⁶ cm/s. For the same compound, the Papp B→A in [3] was 16.3 ×10⁻⁶ cm/s.

The compound `Cc1ccc2[nH]c(C(=O)N[C@H]3CN(S(=O)(=O)c4ccccc4)C[C@@H]3C(=O)NC[C@H]3CCCN3)cc2c1` returned a logD in data set [1] of 1. Also, the apical-to-basolateral permeability (Papp A→B) in data set [2] is 0.11 ×10⁻⁶ cm/s. In addition, in [3], the apparent permeability from basolateral to apical (Papp B→A) came to 15.9 ×10⁻⁶ cm/s.

Take `Cc1ccc2[nH]c(C(=O)N[C@H]3CN(S(=O)(=O)c4ccccc4)C[C@@H]3C(=O)N[C@@H]3CCCNC3)cc2c1`: the logD in data set [1] is 1.3. Further, the Papp A→B in data set [2] stood at 0.04 ×10⁻⁶ cm/s. The apparent permeability from basolateral to apical (Papp B→A) in data set [3] turned out to be 1.6 ×10⁻⁶ cm/s. `Cc1ccc2[nH]c(C(=O)N[C@H]3CN(S(=O)(=O)c4ccccc4)C[C@@H]3C(=O)N[C@H]3CCCNC3)cc2c1` returned a logD in data set [1] of 1.3. Moreover, the apical-to-basolateral permeability (Papp A→B) in data set [2] was 0.04 ×10⁻⁶ cm/s. In addition, the basolateral-to-apical permeability (Papp B→A) in data set [3] amounted to 2 ×10⁻⁶ cm/s. `Cc1ccc2[nH]c(C(=O)N[C@H]3CN(S(=O)(=O)c4cccnc4)C[C@@H]3C(=O)NCCN(C)C)cc2c1`: in data set [1], the pH-dependent lipophilicity (logD) turned out to be 1.4. Same read-out and setting: next, `Cc1ccc2[nH]c(C(=O)N[C@H]3CCN(S(=O)(=O)N4CCOCC4)C[C@@H]3C(=O)NCCN(C)C)cc2c1` (racemic): 1.

On to `O=C(N[C@H]1CN(S(=O)(=O)c2ccccc2)C[C@@H]1C(=O)N[C@H]1CCCNC1)c1cc(-c2ccccc2Cl)on1`, for which the log distribution coefficient (logD) in [1] worked out at 1.9. In addition, in [2], the apical-to-basolateral permeability (Papp A→B) came out at 0.31 ×10⁻⁶ cm/s. Also, the Vd came out at 5.5 L/kg in [4] and 6.6 L/kg in data set [6]. Also, the bioavailability is below 1% in data set [5] and 40% in data set [7]. In addition, the Drug absorption result in [8], in [9] and in [10] was “Not Active” throughout. The apparent permeability coefficient (Papp) in data set [11] and in [12] was below 1 ×10⁻⁶ cm/s in each case. Compound `Cc1ccc2[nH]c(C(=O)N[C@H]3CN(S(=O)(=O)c4cn(C)nc4C)C[C@@H]3C(=O)NCCN(C)C)cc2c1` yielded a logD in [1] of 1.4.

In data set [1], `Cc1ccc2[nH]c(C(=O)N[C@H]3CN(S(=O)(=O)c4ccccc4)C[C@@H]3C(=O)NCCN(C)C)cc2c1` returned a logD of 2.1. With `Cc1ccc2[nH]c(C(=O)N[C@H]3CCN(S(=O)(=O)N(C)C)C[C@@H]3C(=O)NCCN(C)C)cc2c1`, the logD in [1] was found to be 1.2.

For `Cc1ccc2[nH]c(C(=O)N[C@H]3Cc4ccccc4[C@@H]3C(=O)NCCN(C)C)cc2c1`, the pH-dependent lipophilicity (logD) in data set [1] is 2.4. `Cc1ccc2[nH]c(C(=O)N[C@H]3CCN(S(=O)(=O)c4ccccc4Cl)C[C@@H]3C(=O)N[C@H]3CCCNC3)cc2c1` came in with a log distribution coefficient (logD) in data set [1] of 1.9. In addition, in [2], the Papp A→B was below 0.01 ×10⁻⁶ cm/s. Further, the Papp B→A in data set [3] came to 1.4 ×10⁻⁶ cm/s. With `Cc1ccc2[nH]c(C(=O)N[C@@H]3CCN(S(=O)(=O)c4ccccc4)C[C@H]3C(=O)NCCN(C)C)cc2c1`, the log distribution coefficient (logD) in data set [1] came to 2.3. The same measure, in the same setting: for `Cc1ccc2[nH]c(C(=O)N[C@H]3CN(S(=O)(=O)c4ccnc(C)c4)C[C@@H]3C(=O)NCCN(C)C)cc2c1` the value was 1.7.

Turning to `Cc1ccc2[nH]c(C(=O)N[C@H]3CN(S(=O)(=O)c4ccccc4)CC[C@H]3C(=O)NCCN(C)C)cc2c1` (racemic), in data set [1], the pH-dependent lipophilicity (logD) was 1.9. Same read-out and setting: for `Cc1ccc2[nH]c(C(=O)N[C@H]3CCN(S(=O)(=O)c4ccccc4)C[C@@H]3C(=O)NCCN(C)C)cc2c1` the value was 2.2 to 2.3. `Cc1ccc2[nH]c(C(=O)N[C@H]3CN(S(=O)(=O)c4ccccc4)C[C@@H]3C(=O)NC[C@H]3CCCN3C)cc2c1` registered a log distribution coefficient (logD) in data set [1] of 2.3. Further, the Papp A→B in data set [2] worked out at 0.08 ×10⁻⁶ cm/s. Further, in [3], the apparent permeability from basolateral to apical (Papp B→A) amounted to 2.7 ×10⁻⁶ cm/s. For `Cc1ccc2[nH]c(C(=O)N[C@H]3CN(S(=O)(=O)c4ccccc4)C[C@@H]3C(=O)NC[C@@H]3CCCN3C)cc2c1`, in that order: 2.3, 0.24 ×10⁻⁶ cm/s and 19.3 ×10⁻⁶ cm/s. In turn, `Cc1csc(C(=O)N[C@H]2CN(S(=O)(=O)c3ccccc3)C[C@@H]2C(=O)N[C@H]2CCCNC2)n1` showed a logD in [1] of 0.1. In addition, in data set [2], the apparent permeability from apical to basolateral (Papp A→B) was 0.18 ×10⁻⁶ cm/s. Regarding `Cc1ccc2[nH]c(C(=O)N[C@H]3CN(S(=O)(=O)c4cnccn4)C[C@@H]3C(=O)NCCN(C)C)cc2c1`, the logD in data set [1] stood at 1. Same read-out and setting: next, `Cc1ccc2[nH]c(C(=O)N[C@@H]3CN(S(=O)(=O)c4ccccc4)C[C@H]3C(=O)NCCN(C)C)cc2c1`: 2.1; `Cc1ccc2[nH]c(C(=O)N[C@H]3CCN(S(=O)(=O)c4cccnc4)C[C@@H]3C(=O)NCCN(C)C)cc2c1` (racemic): 1.3. On the same count and under the same terms, next, `Cc1ccc2[nH]c(C(=O)N[C@H]3CN(S(=O)(=O)c4ccccc4)CC[C@@H]3C(=O)NCCN(C)C)cc2c1` (racemic): 1.9; `Cc1ccc2[nH]c(C(=O)N[C@H]3CCN(C(=O)c4cccnc4)C[C@@H]3C(=O)NCCN(C)C)cc2c1` (racemic): 0.7. Still for that read-out and setting: next, `Cc1ccc2[nH]c(C(=O)N[C@H]3CN(S(=O)(=O)c4ccnnc4)C[C@@H]3C(=O)NCCN(C)C)cc2c1`: 0.7. `Cc1ccc2[nH]c(C(=O)N[C@H]3CN(S(=O)(=O)c4ccccc4)C[C@@H]3C(=O)N[C@@H]3CCCN(C)C3)cc2c1` displayed a pH-dependent lipophilicity (logD) in data set [1] of 2.7. In addition, the Papp A→B in data set [2] worked out at 0.76 ×10⁻⁶ cm/s. The basolateral-to-apical permeability (Papp B→A) in [3] was 22.8 ×10⁻⁶ cm/s. Take `Cc1ccc2[nH]c(C(=O)N[C@@H]3CCN(S(=O)(=O)c4ccccc4)C[C@@H]3C(=O)NCCN(C)C)cc2c1` (racemic): the logD in [1] came to 2.1. In turn, `Cc1ccc2[nH]c(C(=O)N[C@H]3CCN(S(=O)(=O)c4ccccc4Cl)C[C@@H]3C(=O)N[C@H]3CCCN(C)C3)cc2c1` displayed a logD in data set [1] of 3.1. Also, the Papp A→B in data set [2] amounted to 0.27 ×10⁻⁶ cm/s. The Papp B→A in data set [3] is 15.9 ×10⁻⁶ cm/s. As for `Cc1ccc2[nH]c(C(=O)N[C@H]3CCN(S(=O)(=O)C4CC4)C[C@@H]3C(=O)NCCN(C)C)cc2c1`, the logD in [1] came to 1. Still for that read-out and setting: next, `Cc1ccc2[nH]c(C(=O)N[C@H]3CCN(S(=O)(=O)N4CCCCC4)C[C@@H]3C(=O)NCCN(C)C)cc2c1`: 2.3.

In data set [1], `Cc1ccc2[nH]c(C(=O)N[C@H]3CN(S(=O)(=O)c4ccccc4)C[C@H]3C(=O)NCCN(C)C)cc2c1` (racemic) came in with a logD of 2.3.

The logD is the decadic logarithm of the distribution of all forms, ionised or not, between an organic phase and buffer at a given pH. As a reminder, the Papp A→B is the apparent permeability from the apical to the basolateral side of a cell layer. In general, Papp B→A refers to the apparent permeability from the basolateral to the apical side of a cell layer. Broadly, the bioavailability is the share of a dose that reaches the circulation, judged against a reference dose that is usually intravenous. As usually defined, the Papp is the rate of passage across a membrane or cell layer, normalised by area and donor concentration.
